Test results: US12503473B2, “Triazolopyrimidine compounds and their use in treating cancer” (Dizal (Jiangsu) Pharmaceutical Co., Ltd., priority 2018, dated 2025)

Tests used:
MCT4 [1] = molecular target: T1, MCT4 (Homo sapiens, UniProt O15427); experiment: cell-based
T1 sequence (O15427 1-465): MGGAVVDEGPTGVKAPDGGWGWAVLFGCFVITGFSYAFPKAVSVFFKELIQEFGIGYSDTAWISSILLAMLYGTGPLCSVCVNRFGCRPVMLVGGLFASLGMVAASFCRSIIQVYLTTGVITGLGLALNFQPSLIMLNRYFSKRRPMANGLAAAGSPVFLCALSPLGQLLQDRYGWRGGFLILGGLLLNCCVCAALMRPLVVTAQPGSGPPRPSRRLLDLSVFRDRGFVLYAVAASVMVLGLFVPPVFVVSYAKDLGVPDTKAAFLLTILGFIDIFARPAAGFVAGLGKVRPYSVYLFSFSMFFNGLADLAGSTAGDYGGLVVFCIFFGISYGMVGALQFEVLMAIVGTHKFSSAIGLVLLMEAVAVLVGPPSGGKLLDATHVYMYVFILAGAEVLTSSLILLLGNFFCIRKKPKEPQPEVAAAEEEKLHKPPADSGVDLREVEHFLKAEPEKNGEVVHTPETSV

MCT4 [2] = molecular target: T1, MCT4; experiment: Assay (a): lactate efflux from SK-Br-3 cells (lactate in media, 4 h); assay type: cell-based; parameters: a natively glycolytic human breast adenocarcinoma line predominantly expressing MCT4; host or cells: SK-Br-3; details: mean of at least three repeats (Example 32, marked *, two repeats), read-out: MCT4 lactate efflux pIC50 (SKBR3) (converted)
Description: Assay plates were lidded and incubated for 4 hours at 37° C. and 5% CO2.

MCT1 = molecular target: T2, MCT1 (Homo sapiens, UniProt P53985); experiment: Assay (c): FLIPR BCECF lactate influx in K562 cells; assay type: cell-based; details: mean of at least three repeats, read-out: MCT1 FLIPR pIC50 (K562) (converted)
T2 construct: a human erythroleukemia line predominantly expressing MCT1, a small amount of MCT2 and no MCT4; host or cells: K562
T2 sequence (P53985 1-500): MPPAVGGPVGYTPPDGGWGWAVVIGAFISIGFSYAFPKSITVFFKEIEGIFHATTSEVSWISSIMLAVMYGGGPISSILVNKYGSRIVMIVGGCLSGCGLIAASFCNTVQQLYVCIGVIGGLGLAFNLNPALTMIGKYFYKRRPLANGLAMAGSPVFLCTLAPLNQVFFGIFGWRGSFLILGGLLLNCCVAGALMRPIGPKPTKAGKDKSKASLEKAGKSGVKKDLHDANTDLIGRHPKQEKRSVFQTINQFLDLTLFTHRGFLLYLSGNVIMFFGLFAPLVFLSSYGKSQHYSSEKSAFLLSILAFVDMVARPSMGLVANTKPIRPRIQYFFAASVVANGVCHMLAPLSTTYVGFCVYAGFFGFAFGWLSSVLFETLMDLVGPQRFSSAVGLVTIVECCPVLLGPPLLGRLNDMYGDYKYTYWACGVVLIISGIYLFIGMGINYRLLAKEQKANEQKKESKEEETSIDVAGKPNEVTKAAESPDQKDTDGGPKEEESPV
Description: Cells were loaded with the pH sensitive dye BCECFAM(Invitrogen #B11150) before being washed to remove excess dye and seeded into the assay plates—directly onto the test compound—at a density of 15,000 cells/well (NCI—H358) or 30,000 cells/well (K562), in 30 μl HBSS with 1 mM [final] […] Assay plates were lidded and spun in a plate centrifuge at 170 g for 1 minute. Plates were then wrapped in foil and incubated in the dark for 1 hour at room temperature.
Following incubation with test compound, 10 μl of 25 mM Sodium-L-Lactate (Sigma #L7022) made up in HBSS with 1 mM [final] […] This addition was performed directly on the FLIPR Tetra platform (Molecular Devices) as part of a real-time kinetic read protocol. […] A percentage change from base-line was calculated for each test well and values normalised to control wells—treated with either DMSO (maximum assay signal) or chemistry related to that described in this patent (minimum assay signal)—before fitting concentration response curves to determine an IC50 value.

Structure (SMILES) | IC50 (MCT4 [1]) [nM] | IC50 (MCT4 [2]) [nM] | IC50 (MCT1) [nM]
Cc1nc2nc(C)c(O[C@@H]3CCN(c4ccc(-c5ccc(CN6CCN(C)CC6)nn5)cc4)C3)c(C)n2n1 [Example 65, (R)-2,5,7-trimethyl-6-((1-(4-(6-((4-methylpiperazin-1-yl)methyl)pyridazin-3-yl)phenyl)pyrrolidin-3-yl)oxy)-[1,2,4]triazolo[1,5-a]pyrimidine] | – | – | > 25100
Cc1nc2nc(C)c(C[C@@H]3CCN(c4cnc(-c5ccc(CN6CCN(C)C[C@@H]6C)cc5)cn4)C3)c(C)n2n1 [Example 50, 6-(((R)-1-(5-(4-(((S)-2,4-dimethylpiperazin-1-yl)methyl)phenyl)pyrazin-2-yl)pyrrolidin-3-yl)methyl)-2,5,7-trimethyl-[1,2,4]triazolo[1,5-a]pyrimidine] | 15.8 | 0.501 | > 25100
Cc1nc2nc(C)c(C[C@@H]3CCN(c4ccc(-c5ccc(CN6CCOCC6)nn5)cc4)C3)c(C)n2n1 [Example 29, (R)-4-((6-(4-(3-((2,5,7-trimethyl-[1,2,4]triazolo[1,5-a]pyrimidin-6-yl)methyl)pyrrolidin-1-yl)phenyl)pyridazin-3-yl)methyl)morpholine] | – | – | > 15800
Cc1nc2nc(C)c(C[C@@H]3CCN(c4cnc(-c5ccc(CN6C[C@@H](C)N(C)C[C@@H]6C)cc5)cn4)C3)c(C)n2n1 [Example 36, 2,5,7-trimethyl-6-(((R)-1-(5-(4-(((2S,5R)-2,4,5-trimethylpiperazin-1-yl)methyl)phenyl)pyrazin-2-yl)pyrrolidin-3-yl)methyl)-[1,2,4]triazolo[1,5-a]pyrimidine] | – | 0.501 | > 25100
Cc1nc2nc(C)c(C[C@@H]3CCN(c4cnc(-c5ccc(CN6CCN(CCO)CC6)cc5)cn4)C3)c(C)n2n1 [Example 41, 2-{4-[4-(5-{(3R)-3-[(2,5,7-trimethyl[1,2,4]triazolo[1,5-a]pyrimidin-6-yl)methyl]pyrrolidin-1-yl}pyrazin-2-yl)benzyl]piperazin-1-yl}ethanol] | – | 0.794 | > 25100
Cc1nc2nc(C)c(C[C@@H]3CCN(c4cnc(-c5ccc(CN6CCN(C)CC6)cc5)cn4)C3)c(C)n2n1 [Example 59, (R)-2,5,7-trimethyl-6-((1-(5-(4-((4-methylpiperazin-1-yl)methyl)phenyl)pyrazin-2-yl)pyrrolidin-3-yl)methyl)-[1,2,4]triazolo[1,5-a]pyrimidine] | – | – | > 25100
Cc1nc2nc(C)c(C[C@@H]3CCN(c4cnc(-c5ccc(CN6CCN(CCO)CC6)cc5)nc4)C3)c(C)n2n1 [Example 16, (R)-2-(4-(4-(5-(3-((2,5,7-trimethyl-[1,2,4]triazolo[1,5-a]pyrimidin-6-yl)methyl)pyrrolidin-1-yl)pyrimidin-2-yl)benzyl)piperazin-1-yl)ethanol] | 31.6 | 0.501 | –
Cc1nc2nc(C)c(C[C@@H]3CCN(c4ccc(-c5ccc(CN6CCN(C)CC6)cc5)cn4)C3)c(C)n2n1 [Example 5, (R)-2,5,7-trimethyl-6-((1-(5-(4-((4-methylpiperazin-1-yl)methyl)phenyl)pyridin-2-yl)pyrrolidin-3-yl)methyl)-[1,2,4]triazolo[1,5-a]pyrimidine] | 12.6 | 0.501 | –
Cc1nc2nc(C)c(C[C@@H]3CCN(c4ccc(-c5ccc(CN6CCOCC6)cc5)nn4)C3)c(C)n2n1 [Example 61, (R)-4-(4-(6-(3-((2,5,7-trimethyl-[1,2,4]triazolo[1,5-a]pyrimidin-6-yl)methyl)pyrrolidin-1-yl)pyridazin-3-yl)benzyl)morpholine] | 6.31 | 1 | –
COc1cc(CN2CCN(C)CC2)ccc1-c1cnc(N2CC[C@@H](Cc3c(C)nc4nc(C)nn4c3C)C2)cn1 [Example 43, (R)-6-((1-(5-(2-methoxy-4-((4-methylpiperazin-1-yl)methyl)phenyl)pyrazin-2-yl)pyrrolidin-3-yl)methyl)-2,5,7-trimethyl-[1,2,4]triazolo[1,5-a]pyrimidine] | 20 | 0.631 | –
Cc1nc2nc(C)c(C[C@@H]3CCN(c4cnc(-c5ccc(CN6CCN(C)[C@@H](C)C6)cc5)cn4)C3)c(C)n2n1 [Example 48, 6-(((R)-1-(5-(4-(((S)-3,4-dimethylpiperazin-1-yl)methyl)phenyl)pyrazin-2-yl)pyrrolidin-3-yl)methyl)-2,5,7-trimethyl-[1,2,4]triazolo[1,5-a]pyrimidine] | 10 | 1.58 | –

Second part, the compound after the results:

IC50 (MCT4 [1]) [nM] | IC50 (MCT4 [2]) [nM] | IC50 (MCT1) [nM] | Structure (SMILES)
100 | 3.16 | > 25100 | Cc1nc2nc(C)c(O[C@@H]3CCN(c4ccc(-c5ccc(CN6CCN7CCC[C@H]7C6)nn5)cc4)C3)c(C)n2n1 [Example 68, 6-(((R)-1-(4-(6-(((S)-hexahydropyrrolo[1,2-a]pyrazin-2(1H)-yl)methyl)pyridazin-3-yl)phenyl)pyrrolidin-3-yl)oxy)-2,5,7-trimethyl-[1,2,4]triazolo[1,5-a]pyrimidine]
63.1 | 2 | > 25100 | Cc1nc2nc(C)c(O[C@@H]3CCN(c4ccc(-c5ccc(CN6CCN7CCC[C@@H]7C6)nn5)cc4)C3)c(C)n2n1 [Example 67, 6-(((R)-1-(4-(6-(((R)-hexahydropyrrolo[1,2-a]pyrazin-2(1H)-yl)methyl)pyridazin-3-yl)phenyl)pyrrolidin-3-yl)oxy)-2,5,7-trimethyl-[1,2,4]triazolo[1,5-a]pyrimidine]
15.8 | 0.631 | > 25100 | Cc1nc2nc(C)c(C[C@@H]3CCN(c4cnc(-c5ccc(CN6C[C@@H](C)N(C)C[C@H]6C)cc5)cn4)C3)c(C)n2n1 [Example 35, 2,5,7-trimethyl-6-(((R)-1-(5-(4-(((2R,5R)-2,4,5-trimethylpiperazin-1-yl)methyl)phenyl)pyrazin-2-yl)pyrrolidin-3-yl)methyl)-[1,2,4]triazolo[1,5-a]pyrimidine]
79.4 | 2.51 | > 25100 | CCN1CCN(Cc2ccc(-c3ccc(N4CC[C@@H](Oc5c(C)nc6nc(C)nn6c5C)C4)cc3)nn2)CC1 [Example 72, (R)-6-((1-(4-(6-((4-ethylpiperazin-1-yl)methyl)pyridazin-3-yl)phenyl)pyrrolidin-3-yl)oxy)-2,5,7-trimethyl-[1,2,4]triazolo[1,5-a]pyrimidine]
– | – | > 25100 | CC(=O)N1CCN(Cc2ccc(-c3ccc(N4CC[C@@H](Oc5c(C)nc6nc(C)nn6c5C)C4)cc3)nn2)CC1 [Example 71, (R)-1-(4-((6-(4-(3-((2,5,7-trimethyl-[1,2,4]triazolo[1,5-a]pyrimidin-6-yl)oxy)pyrrolidin-1-yl)phenyl)pyridazin-3-yl)methyl)piperazin-1-yl)ethan-1-one]
15.8 | 0.501 | > 20000 | Cc1nc2nc(C)c(C[C@@H]3CCN(c4ccc(-c5ccc(CN6CCOCC6)nn5)nc4)C3)c(C)n2n1 [Example 9, (R)-4-((6-(5-(3-((2,5,7-trimethyl-[1,2,4]triazolo[1,5-a]pyrimidin-6-yl)methyl)pyrrolidin-1-yl)pyridin-2-yl)pyridazin-3-yl)methyl)morpholine]
– | 2 | > 25100 | Cc1nc2nc(C)c(O[C@@H]3CCN(c4cnc(-c5ccc(CN6CCN(C)CC6)cc5)nc4)C3)c(C)n2n1 [Example 76, (R)-2,5,7-trimethyl-6-((1-(2-(4-((4-methylpiperazin-1-yl)methyl)phenyl)pyrimidin-5-yl)pyrrolidin-3-yl)oxy)-[1,2,4]triazolo[1,5-a]pyrimidine]
31.6 | 3.98 | – | CCN1CCN(Cc2ccc(-c3cnc(N4CC[C@@H](Cc5c(C)nc6nc(C)nn6c5C)C4)cn3)cc2)CC1 [Example 38, (R)-6-((1-(5-(4-((4-ethylpiperazin-1-yl)methyl)phenyl)pyrazin-2-yl)pyrrolidin-3-yl)methyl)-2,5,7-trimethyl-[1,2,4]triazolo[1,5-a]pyrimidine]
6.31 | 0.398 | – | Cc1nc2nc(C)c(C[C@@H]3CCN(c4cnc(-c5ccc(CN6CCCCC6)cc5)cn4)C3)c(C)n2n1 [Example 37, 2,5,7-trimethyl-6-[[(3R)-1-[5-[4-(1-piperidylmethyl)phenyl]pyrazin-2-yl]pyrrolidin-3-yl]methyl]-[1,2,4]triazolo[1,5-a]pyrimidine]
